Numbered stars: 1 amine (or outer) side, 2 acyl side, 3 side chain; on linkers, the order of the positions; unused ones are H or OH. Bridge positions count the residues as written; N and C are the ends. Square brackets hold non-standard residues; d marks the D form. Peptide text beside a SMILES is read from it. * marks the point of attachment. hPhe(3-Cl-4-CF3) = N[C@@H](CCc1ccc(C(F)(F)F)c(Cl)c1)C(=O)O; NMePhe(4-Me) = CN[C@@H](Cc1ccc(C)cc1)C(=O)O; NMedβ3hAla = C[C@H](CC(=O)[*:2])N(C)[*:1]; NMeNva(5,5-F2) = CN[C@@H](CCC(F)F)C(=O)O; NMeGly(cPent) = CN[C@H](C(=O)O)C1CCCC1; NMe3Pal = CN[C@@H](Cc1cccnc1)C(=O)O; NMeCha = CN[C@@H](CC1CCCCC1)C(=O)O; NMehLeu = CN[C@@H](CCC(C)C)C(=O)O; NMeChg = CN[C@H](C(=O)O)C1CCCCC1; NMeF = CN[C@@H](Cc1ccccc1)C(=O)O; NMeI = CC[C@H](C)[C@H](NC)C(=O)O; NMeD = CN[C@@H](CC(=O)O)C(=O)O; NMeL = CN[C@@H](CC(C)C)C(=O)O; NMeV = CN[C@H](C(=O)O)C(C)C; d(β3hA) = C[C@@H](N)CC(=O)O; NMeAbu = CC[C@H](NC)C(=O)O; NMeS = CN[C@@H](CO)C(=O)O; Morpholide = C1CN(*)CCO1; NMeA = CN[C@@H](C)C(=O)O; Piperidide = C1CCN(*)CC1; dNMeA = CN[C@H](C)C(=O)O; Ac5c = NC1(C(=O)O)CCCC1; Aze = O=C(O)[C@@H]1CCN1; Abu = CC[C@H](N)C(=O)O; Sar = CNCC(=O)O
How the values were obtained:
[1] = target: protein-protein interaction between Kras and SOS1 (biotin-tagged human Kras loaded with GDP, His-tagged human SOS1) (Homo sapiens (Human), UniProt P01116, G12D); experiment: Protein-protein interaction inhibition between Kras and SOS1 (KrasG12D-SOS PPI) using AlphaScreen; assay type: biochemical; settings: AlphaScreen; biotin-tagged human Kras loaded with GDP, His-tagged human SOS1; read-out: KRAS G12D-SOS PPI IC50;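 note: kras produced in E. coli, Ni-coupled donor beads and streptavidin acceptor beads, excitation 680 nm with emission detected at 520–620 nm via singlet oxygen transfer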
[2] = test system: Human pancreatic cancer cell line AsPC-1 (G12D mutation Kras); experiment: AsPC-1 cell growth inhibition (AsPC-1 CGI); assay type: cell-based; settings: read-out: AsPC-1 cell growth inhibition, 50% growth inhibitory concentration (IC50 value); 96 hours, CellTiter-Glo, values classified in ranges
Experimental: Test compounds were serially dilated with dimethyl sulfoxide, and 200 nL was then dispensed to a U-bottom 96-well plate using Labcyte Echo. […] The cell suspension was dispensed to a. plate containing a test compound at 100 μL per well and incubated at 37° C. in a 5% carbon dioxide gas incubator. 96 hours later, 80 μL of CellTiter-Glo (Promega) was added to each well and fluorescence was measured.

Compound	IC50 [1] [nM]	IC50 [2] [nM]
CC[C@H](C)[C@@H]1NC(=O)[C@H](C)N(C)C(=O)C[C@@H](C(=O)N2CCOCC2)N(C)C(=O)[C@H](C2CCCCC2)N(C)C(=O)C2(CCCC2)NC(=O)[C@H](Cc2cccnc2)N(C)C(=O)[C@H](CCc2ccc(C(F)(F)F)c(Cl)c2)NC(=O)CN(C)C(=O)[C@H](CC2CCCCC2)N(C)C(=O)CN(C)C(=O)CN(C)C1=O [Compound 1718] ([NMeA]I[Sar][Sar][NMeCha][Sar][hPhe(3-Cl-4-CF3)][NMe3Pal][Ac5c][NMeChg][NMeD]-Morpholide; lactam N-11)	0.8	> 500
CC[C@H](C)[C@@H]1NC(=O)[C@H](CC(C)C)N(C)C(=O)C[C@@H](C(=O)N2CCCCC2)N(C)C(=O)[C@H](C(C)C)N(C)C(=O)C2(CCCC2)NC(=O)[C@@H]2CCCN2C(=O)[C@H](CCc2ccc(C(F)(F)F)c(Cl)c2)NC(=O)CN(C)C(=O)[C@H](CO)N(C)C(=O)[C@@H]2CCN2C(=O)[C@H](C)N(C)C1=O [Compound 1721] ([NMeL]I[NMeA][Aze][NMeS][Sar][hPhe(3-Cl-4-CF3)]P[Ac5c][NMeV][NMeD]-Piperidide; lactam N-11)	22	> 500
CC[C@H](C)[C@@H]1NC(=O)[C@H](C)N(C)C(=O)C[C@@H](C(=O)N2CCCCC2)N(C)C(=O)[C@H](C(C)C)N(C)C(=O)C2(CCCC2)NC(=O)[C@@H]2CCCN2C(=O)[C@H](CCc2ccc(C(F)(F)F)c(Cl)c2)NC(=O)[C@@H](C)N(C)C(=O)[C@H](Cc2ccccc2)N(C)C(=O)[C@@H]2CCN2C(=O)[C@H](C)N(C)C1=O [Compound 1724] ([NMeA]I[NMeA][Aze][NMeF][dNMeA][hPhe(3-Cl-4-CF3)]P[Ac5c][NMeV][NMeD]-Piperidide; lactam N-11)	16	> 500
CC[C@H](C)[C@@H]1NC(=O)[C@H](CC(C)C)N(C)C(=O)C[C@@H](C)N(C)C(=O)[C@H]([C@@H](C)CC)N(C)C(=O)C2(CCCC2)NC(=O)[C@@H]2CCCN2C(=O)[C@H](CCc2ccc(C(F)(F)F)c(Cl)c2)NC(=O)CN(C)C(=O)[C@H](CC2CCCCC2)N(C)C(=O)[C@@H]2CCN2C(=O)[C@H](C)N(C)C1=O [Compound 1733] (cyclo([Ac5c][NMeI][NMedβ3hAla][NMeL]I[NMeA][Aze][NMeCha][Sar][hPhe(3-Cl-4-CF3)]P))	130	> 500
CC[C@H](C)[C@@H]1NC(=O)[C@H](CC(C)C)N(C)C(=O)C[C@@H](C(=O)N2CCOCC2)N(C)C(=O)[C@H](C2CCCCC2)N(C)C(=O)C2(CCCC2)NC(=O)[C@H](Cc2cccnc2)N(C)C(=O)[C@H](CCc2ccc(C(F)(F)F)c(Cl)c2)NC(=O)CN(C)C(=O)[C@H](CC2CCCCC2)N(C)C(=O)CN(C)C(=O)CN(C)C1=O [Compound 1745] ([NMeL]I[Sar][Sar][NMeCha][Sar][hPhe(3-Cl-4-CF3)][NMe3Pal][Ac5c][NMeChg][NMeD]-Morpholide; lactam N-11)	1.3	> 500
CC[C@H](C)[C@@H]1NC(=O)[C@H](CC(C)C)N(C)C(=O)C[C@@H](C)NC(=O)[C@H](C2CCCCC2)N(C)C(=O)C2(CCCC2)NC(=O)[C@@H]2CCCN2C(=O)[C@H](CCc2ccc(C(F)(F)F)c(Cl)c2)NC(=O)CN(C)C(=O)[C@H](Cc2ccc(C)cc2)N(C)C(=O)[C@@H]2CCN2C(=O)[C@H](C)N(C)C1=O [Compound 1747] (cyclo([Ac5c][NMeChg][d(β3hA)][NMeL]I[NMeA][Aze][NMePhe(4-Me)][Sar][hPhe(3-Cl-4-CF3)]P))	16	> 500
CC[C@H](C)[C@@H]1NC(=O)[C@H](CC(C)C)N(C)C(=O)C[C@@H](C)N(C)C(=O)[C@H](C2CCCC2)N(C)C(=O)C2(CCCC2)NC(=O)[C@@H]2CCCN2C(=O)[C@H](CCc2ccc(C(F)(F)F)c(Cl)c2)NC(=O)CN(C)C(=O)[C@H](Cc2ccc(C)cc2)N(C)C(=O)[C@@H]2CCN2C(=O)[C@H](C)N(C)C1=O [Compound 1750] (cyclo([Ac5c][NMeGly(cPent)][NMedβ3hAla][NMeL]I[NMeA][Aze][NMePhe(4-Me)][Sar][hPhe(3-Cl-4-CF3)]P))	1.3	≤ 20
CC[C@H](C)[C@@H]1NC(=O)[C@H](CC(C)C)N(C)C(=O)C[C@@H](C(=O)N2CCCCC2)N(C)C(=O)[C@H](C(C)C)N(C)C(=O)C2(CCCC2)NC(=O)[C@@H]2CCCN2C(=O)[C@H](CCc2ccc(C(F)(F)F)c(Cl)c2)NC(=O)CN(C)C(=O)[C@H](CC)N(C)C(=O)[C@@H]2CCN2C(=O)[C@H](C)N(C)C1=O [Compound 1752] ([NMeL]I[NMeA][Aze][NMeAbu][Sar][hPhe(3-Cl-4-CF3)]P[Ac5c][NMeV][NMeD]-Piperidide; lactam N-11)	17	> 500
CC[C@@H]1NC(=O)[C@H](CC(C)C)N(C)C(=O)C[C@@H](C(=O)N2CCCCC2)N(C)C(=O)[C@H](C(C)C)N(C)C(=O)C2(CCCC2)NC(=O)[C@@H]2CCCN2C(=O)[C@H](CCc2ccc(C(F)(F)F)c(Cl)c2)NC(=O)CN(C)C(=O)[C@H](CC2CCCCC2)N(C)C(=O)[C@@H]2CCN2C(=O)[C@H](C)N(C)C1=O [Compound 1760] ([NMeL][Abu][NMeA][Aze][NMeCha][Sar][hPhe(3-Cl-4-CF3)]P[Ac5c][NMeV][NMeD]-Piperidide; lactam N-11)	32	> 500
CC[C@H](C)[C@@H]1NC(=O)[C@H](CC(C)C)N(C)C(=O)C[C@@H](C(=O)N2CCCCC2)N(C)C(=O)[C@H](C(C)C)N(C)C(=O)C2(CCCC2)NC(=O)[C@@H]2CCCN2C(=O)[C@H](CCc2ccc(C(F)(F)F)c(Cl)c2)NC(=O)CN(C)C(=O)[C@H](CCC(F)F)N(C)C(=O)[C@@H]2CCN2C(=O)[C@H](C)N(C)C1=O [Compound 1769] ([NMeL]I[NMeA][Aze][NMeNva(5,5-F2)][Sar][hPhe(3-Cl-4-CF3)]P[Ac5c][NMeV][NMeD]-Piperidide; lactam N-11)	11	> 500
CC[C@H](C)[C@@H]1NC(=O)[C@H](CC(C)C)N(C)C(=O)C[C@@H](C(=O)N2CCCCC2)N(C)C(=O)[C@H](C2CCCC2)N(C)C(=O)C2(CCCC2)NC(=O)[C@@H]2CCCN2C(=O)[C@H](CCc2ccc(C(F)(F)F)c(Cl)c2)NC(=O)CN(C)C(=O)[C@H](Cc2ccc(C)cc2)N(C)C(=O)[C@@H]2CCN2C(=O)[C@H](C)N(C)C1=O [Compound 1772] ([NMeL]I[NMeA][Aze][NMePhe(4-Me)][Sar][hPhe(3-Cl-4-CF3)]P[Ac5c][NMeGly(cPent)][NMeD]-Piperidide; lactam N-11)	0.75	≤ 20
CC[C@H](C)[C@@H]1NC(=O)[C@H](CC(C)C)N(C)C(=O)C[C@@H](C(=O)N2CCCCC2)N(C)C(=O)[C@H](CCC(C)C)N(C)C(=O)C2(CCCC2)NC(=O)[C@@H]2CCCN2C(=O)[C@H](CCc2ccc(C(F)(F)F)c(Cl)c2)NC(=O)CN(C)C(=O)[C@H](CC2CCCCC2)N(C)C(=O)[C@@H]2CCN2C(=O)[C@H](C)N(C)C1=O [Compound 1776] ([NMeL]I[NMeA][Aze][NMeCha][Sar][hPhe(3-Cl-4-CF3)]P[Ac5c][NMehLeu][NMeD]-Piperidide; lactam N-11)	24	> 500
CC[C@H](C)[C@@H]1NC(=O)[C@H](CC(C)C)N(C)C(=O)C[C@@H](C(=O)N(C)C)N(C)C(=O)[C@H](C2CCCC2)N(C)C(=O)C2(CCCC2)NC(=O)[C@@H]2CCCN2C(=O)[C@H](CCc2ccc(C(F)(F)F)c(Cl)c2)NC(=O)CN(C)C(=O)[C@H](CC2CCCCC2)N(C)C(=O)[C@@H]2CCN2C(=O)[C@H](C)N(C)C1=O [Compound 1777] ([NMeL]I[NMeA][Aze][NMeCha][Sar][hPhe(3-Cl-4-CF3)]P[Ac5c][NMeGly(cPent)][NMeD]-NMe2; lactam N-11)	0.63	≤ 20
CC(C)C[C@H]1C(=O)N[C@@H](C)C(=O)N(C)[C@@H](C)C(=O)N2CC[C@H]2C(=O)N(C)[C@@H](CC2CCCCC2)C(=O)N(C)CC(=O)N[C@@H](CCc2ccc(C(F)(F)F)c(Cl)c2)C(=O)N2CCC[C@H]2C(=O)NC2(CCCC2)C(=O)N(C)[C@@H](C(C)C)C(=O)N(C)[C@H](C(=O)N2CCCCC2)CC(=O)N1C [Compound 1780] ([NMeL]A[NMeA][Aze][NMeCha][Sar][hPhe(3-Cl-4-CF3)]P[Ac5c][NMeV][NMeD]-Piperidide; lactam N-11)	120	> 500
CC[C@H](C)[C@@H]1NC(=O)[C@H](CC(C)C)N(C)C(=O)C[C@@H](C(=O)N2CCCCC2)N(C)C(=O)[C@H](C2CCCC2)N(C)C(=O)C2(CCCC2)NC(=O)[C@@H]2CCCN2C(=O)[C@H](CCc2ccc(C(F)(F)F)c(Cl)c2)NC(=O)CN(C)C(=O)[C@H](CC2CCCCC2)N(C)C(=O)[C@@H]2CCN2C(=O)[C@H](C)N(C)C1=O [Compound 1787] ([NMeL]I[NMeA][Aze][NMeCha][Sar][hPhe(3-Cl-4-CF3)]P[Ac5c][NMeGly(cPent)][NMeD]-Piperidide; lactam N-11)	1.1	≤ 20
CC[C@H](C)[C@@H]1NC(=O)[C@H](CC(C)C)N(C)C(=O)C[C@@H](C)N(C)C(=O)[C@H]([C@@H](C)CC)N(C)C(=O)C2(CCCC2)NC(=O)[C@@H]2CCCN2C(=O)[C@H](CCc2ccc(C(F)(F)F)c(Cl)c2)NC(=O)CN(C)C(=O)[C@H](Cc2ccc(C)cc2)N(C)C(=O)[C@@H]2CCN2C(=O)[C@H](C)N(C)C1=O [Compound 1793] (cyclo([Ac5c][NMeI][NMedβ3hAla][NMeL]I[NMeA][Aze][NMePhe(4-Me)][Sar][hPhe(3-Cl-4-CF3)]P))	1.9	≤ 20
CC[C@H](C)[C@@H]1NC(=O)[C@H](CC(C)C)N(C)C(=O)C[C@@H](C)N(C)C(=O)[C@H](C(C)C)N(C)C(=O)C2(CCCC2)NC(=O)[C@@H]2CCCN2C(=O)[C@H](CCc2ccc(C(F)(F)F)c(Cl)c2)NC(=O)CN(C)C(=O)[C@H](Cc2ccc(C)cc2)N(C)C(=O)[C@@H]2CCN2C(=O)[C@H](C)N(C)C1=O [Compound 1809] (cyclo([Ac5c][NMeV][NMedβ3hAla][NMeL]I[NMeA][Aze][NMePhe(4-Me)][Sar][hPhe(3-Cl-4-CF3)]P))	1.4	≤ 20
